# Results taken from patent US20230391760A1, “HETEROCYCLIC GLP-1 AGONISTS” (Gasherbrum Bio, Inc., priority 2020, published 2023).
# Target: GLP-1 Receptor (Homo sapiens, UniProt P43220)
# Assay: GLP-1R agonist cAMP stimulation assay (HEK293/GLP1R/CRE-LUC cells, cAMP dynamic 2 Kit)
# Format: cell-based
# Details: HEK293/CRE-Luc cell line stably expressing the GLP-1 Receptor, 30 min at 37° C.
# Summary of the method: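 HEK293 cells stably expressing human GLP-1R with CRE-luciferase, 1000 cells/well in DPBS with 0.5 mM IBMX and 0.1% BSA, treated with compound in 1/2-log serial dilution for 30 min at 37 °C. cAMP then detected by HTRF (cAMP-d2 plus anti-cAMP cryptate), 1 h at room temperature in the dark.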
# Chain of GLP-1 Receptor (P43220 24-463, species assumed): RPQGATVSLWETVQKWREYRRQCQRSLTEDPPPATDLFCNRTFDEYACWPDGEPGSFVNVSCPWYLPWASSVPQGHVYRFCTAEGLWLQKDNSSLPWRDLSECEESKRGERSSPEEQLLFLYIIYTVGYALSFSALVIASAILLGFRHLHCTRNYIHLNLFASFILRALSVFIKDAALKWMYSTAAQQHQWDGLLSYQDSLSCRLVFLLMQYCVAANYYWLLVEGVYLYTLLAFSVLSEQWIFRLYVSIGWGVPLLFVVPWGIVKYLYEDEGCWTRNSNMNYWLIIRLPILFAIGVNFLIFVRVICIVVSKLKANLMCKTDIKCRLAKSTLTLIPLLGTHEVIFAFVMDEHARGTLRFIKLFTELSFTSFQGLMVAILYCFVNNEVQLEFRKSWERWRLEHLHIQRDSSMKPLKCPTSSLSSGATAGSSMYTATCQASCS
row,SMILES,EC50 [nM]
1,"O=C(O)COc1ccc2c(c1)nc(CN1CCC(c3cccc(OCc4ccc(Cl)cc4F)n3)CC1)n2C[C@@H]1CCO1 [Compound 109a, (S)-2-((2-((4-(6-((4-chloro-2-fluorobenzyl)oxy)pyridin-2-yl)piperidin-1-yl)methyl)-1-(oxetan-2-ylmethyl)-1H-benzo[d]imidazol-5-yl)oxy)acetic acid]",13.2
2,"Cc1nnc(-c2cc3nc(CN4CCC(c5cccc6c5OC(C)(c5ccc(Cl)cn5)O6)CC4)n(C[C@@H]4CCO4)c3cn2)[nH]1 (stereo partly drawn) [Compound 267a, 5-chloro-2-[2-methyl-4-(1-{[6-(5-methyl-4H-1,2,4-triazol-3-yl)-3-{[(2S)-oxetan-2-yl]methyl}-3H-imidazo[4,5-c]pyridin-2-yl]methyl}piperidin-4-yl)-2H-1,3-benzodioxol-2-yl]pyridine]",0.051
3,"O=C(Nc1ccc2c(c1)nc(CN1CCC(c3cccc(OCc4ccc(Cl)cc4F)n3)CC1)n2C[C@@H]1CCO1)c1cncnc1 [Compound 200a, N-{2-[(4-{6-[(4-chloro-2-fluorophenyl)methoxy]pyridin-2-yl}piperidin-1-yl)methyl]-1-{[(2S)-oxetan-2-yl]methyl}-1H-1,3-benzodiazol-5-yl}pyrimidine-5-carboxamide]",0.35
4,"CC1(c2ccc(C#N)cc2F)Oc2cccc(C3CCN(Cc4nc5cc(-c6noc(=O)[nH]6)cnc5n4C[C@@H]4CCO4)CC3)c2O1 (stereo partly drawn) [Compound 329a, 3-fluoro-4-(2-methyl-4-{1-[(3-{[(2S)-oxetan-2-yl]methyl}-6-(5-oxo-4,5-dihydro-1,2,4-oxadiazol-3-yl)-3H-imidazo[4,5-b]pyridin-2-yl)methyl]piperidin-4-yl}-2H-1,3-benzodioxol-2-yl)benzonitrile]",0.25
5,"CC1(c2ccc(Cl)cc2F)Oc2cccc(C3CCN(Cc4nc5cc(-c6noc(=O)[nH]6)ccc5n4CC4(C#N)CC4)CC3)c2O1 (stereo not shown) [Compound 231a, 1-((2-((4-(2-(4-chloro-2-fluorophenyl)-2-methylbenzo[d][1,3]dioxol-4-yl)piperidin-1-yl)methyl)-5-(5-oxo-4,5-dihydro-1,2,4-oxadiazol-3-yl)-1H-benzo[d]imidazol-1-yl)methyl)cyclopropane-1-carbonitrile]",0.031
6,"CO[C@@H](C)Cn1c(CN2CCC(c3cccc4c3O[C@@](C)(c3ccc(Cl)cc3F)O4)CC2)nc2cc(-c3nnc(C(F)(F)F)[nH]3)ncc21 [Compound 420a, 4-[(2S)-2-(4-chloro-2-fluorophenyl)-2-methyl-2H-1,3-benzodioxol-4-yl]-1-({3-[(2S)-2-methoxypropyl]-6-[5-(trifluoromethyl)-4H-1,2,4-triazol-3-yl]-3H-imidazo[4,5-c]pyridin-2-yl}methyl)piperidine]",0.21
7,"CC(C(=O)Nc1ccc2c(c1)nc(CN1CCC(c3cccc(OCc4ccc(Cl)cc4F)n3)CC1)n2C[C@@H]1CCO1)c1cnn(C)c1 (stereo partly drawn) [Compound 182a, N-{2-[(4-{6-[(4-chloro-2-fluorophenyl)methoxy]pyridin-2-yl}piperidin-1-yl)methyl]-1-{[(2S)-oxetan-2-yl]methyl}-1H-1,3-benzodiazol-5-yl}-2-(1-methyl-1H-pyrazol-4-yl)propanamide]",2.5
8,"O=C(CC1CC1)Nc1ccc2c(c1)nc(CN1CCC(c3cccc(OCc4ccc(Cl)cc4F)n3)CC1)n2C[C@@H]1CCO1 [Compound 106a, (S)—N-(2-((4-(6-((4-chloro-2-fluorobenzyl)oxy)pyridin-2-yl)piperidin-1-yl)methyl)-1-(oxetan-2-ylmethyl)-1H-benzo[d]imidazol-5-yl)-2-cyclopropylacetamide]",1.19
9,"C[C@]1(c2ccc(Cl)cn2)Oc2cccc(C3CCN(Cc4nc5cc(C(=O)O)nnc5n4C[C@@H]4CCO4)CC3)c2O1 [Compound 464a, 6-({4-[(2S)-2-(5-chloropyridin-2-yl)-2-methyl-2H-1,3-benzodioxol-4-yl]piperidin-1-yl}methyl)-7-{[(2S)-oxetan-2-yl]methyl}-7H-imidazo[4,5-c]pyridazine-3-carboxylic acid]",0.76
10,"C[C@]1(c2ccc(Cl)cn2)Oc2cccc(C3CCN(Cc4nc5cc(-c6noc(=O)[nH]6)ncc5n4C[C@@H]4CCO4)CC3)c2O1 [Compound 430a, 3-[2-({4-[(2S)-2-(5-chloropyridin-2-yl)-2-methyl-2H-1,3-benzodioxol-4-yl]piperidin-1-yl}methyl)-3-{[(2S)-oxetan-2-yl]methyl}-3H-imidazo[4,5-c]pyridin-6-yl]-4,5-dihydro-1,2,4-oxadiazol-5-one]",0.04

# More lines, now with the values ahead:
row,EC50 [nM],SMILES
1,0.099,"Fc1cc(C2CC2)ccc1COc1cccc(C2CCN(Cc3nc4cc(-c5nnc(C(F)(F)F)[nH]5)ncc4n3C[C@@H]3CCO3)CC2)n1 [Compound 498a, 2-[(4-cyclopropyl-2-fluorophenyl)methoxy]-6-{1-[(3-{[(2S)-oxetan-2-yl]methyl}-6-[5-(trifluoromethyl)-4H-1,2,4-triazol-3-yl]-3H-imidazo[4,5-c]pyridin-2-yl)methyl]piperidin-4-yl}pyridine]"
2,0.46,"CO[C@H](C)Cn1c(CN2CCC(c3cccc4c3O[C@@](C)(c3ccc(Cl)cn3)O4)CC2)nc2cc(-c3nnc(C(F)(F)F)[nH]3)nnc21 [Compound 473a, 5-chloro-2-[(2S)-4-[1-({7-[(2R)-2-methoxypropyl]-3-[5-(trifluoromethyl)-4H-1,2,4-triazol-3-yl]-7H-imidazo[4,5-c]pyridazin-6-yl}methyl)piperidin-4-yl]-2-methyl-2H-1,3-benzodioxol-2-yl]pyridine]"
3,0.0088,"CC1(c2ccc(Cl)cc2F)Oc2c(F)ccc(C3CCN(Cc4nc5cc(-c6nnc(C(F)(F)F)[nH]6)ncc5n4C[C@@H]4CCO4)CC3)c2O1 (stereo partly drawn) [Compound 459a, 4-[2-(4-chloro-2-fluorophenyl)-7-fluoro-2-methyl-2H-1,3-benzodioxol-4-yl]-1-[(3-{[(2S)-oxetan-2-yl]methyl}-6-[5-(trifluoromethyl)-4H-1,2,4-triazol-3-yl]-3H-imidazo[4,5-c]pyridin-2-yl)methyl]piperidine]"
4,0.017,"Cc1ccc(COc2cccc(C3CCN(Cc4nc5cc(-c6nnc(C(F)(F)F)[nH]6)ncc5n4C[C@@H]4CCO4)CC3)n2)c(F)c1 [Compound 496a, 2-[(2-fluoro-4-methylphenyl)methoxy]-6-{1-[(3-{[(2S)-oxetan-2-yl]methyl}-6-[5-(trifluoromethyl)-4H-1,2,4-triazol-3-yl]-3H-imidazo[4,5-c]pyridin-2-yl)methyl]piperidin-4-yl}pyridine]"
5,0.092,"Fc1cc(Cl)ccc1COc1nc(C2CCN(Cc3nc4cc(-c5nnc(C(F)(F)F)[nH]5)cnc4n3C[C@@H]3CCO3)CC2)ncc1F [Compound 504a, 4-[(4-chloro-2-fluorophenyl)methoxy]-5-fluoro-2-{1-[(3-{[(2S)-oxetan-2-yl]methyl}-6-[5-(trifluoromethyl)-4H-1,2,4-triazol-3-yl]-3H-imidazo[4,5-b]pyridin-2-yl)methyl]piperidin-4-yl}pyrimidine]"
6,0.13,"CC1(c2ccc(Cl)cn2)Oc2cccc(C3CCN(Cc4nc5cc(-c6nnc(C(F)(F)F)[nH]6)ncc5n4C[C@@H]4CCCO4)CC3)c2O1 (stereo partly drawn) [Compound 425a, 5-chloro-2-(2-methyl-4-{1-[(3-{[(2S)-oxolan-2-yl]methyl}-6-[5-(trifluoromethyl)-4H-1,2,4-triazol-3-yl]-3H-imidazo[4,5-c]pyridin-2-yl)methyl]piperidin-4-yl}-2H-1,3-benzodioxol-2-yl)pyridine]"
7,4.8,"Fc1cc(Cl)ccc1COc1cccc(C2CCN(Cc3nc4cc(-c5cn[nH]n5)ccc4n3C[C@@H]3CCO3)CC2)n1 [Compound 149a, 2-[(4-{6-[(4-chloro-2-fluorophenyl)methoxy]pyridin-2-yl}piperidin-1-yl)methyl]-1-{[(2S)-oxetan-2-yl]methyl}-5-(2H-1,2,3-triazol-4-yl)-1H-1,3-benzodiazole]"
8,0.014,"CC1(c2ccc(Cl)cc2F)Oc2cccc(C3CCN(Cc4nc5cc(-c6nnc(C(F)(F)F)[nH]6)cnc5n4C[C@@H]4CCO4)CC3)c2O1 (single isomer, unassigned) [Compound 224c]"
9,0.013,"Fc1cc(Cl)ccc1COc1cccc(N2CCN(Cc3nc4cc(-c5nnc(C(F)(F)F)[nH]5)cnc4n3C[C@@H]3CCO3)CC2)n1 [Compound 494a, 1-{6-[(4-chloro-2-fluorophenyl)methoxy]pyridin-2-yl}-4-[(3-{[(2S)-oxetan-2-yl]methyl}-6-[5-(trifluoromethyl)-4H-1,2,4-triazol-3-yl]-3H-imidazo[4,5-b]pyridin-2-yl)methyl]piperazine]"
10,0.22,"Fc1cc(Cl)ccc1COc1cc(C2CCN(Cc3nc4cc(-c5nnc(C(F)(F)F)[nH]5)ncc4n3C[C@@H]3CCO3)CC2)ccc1F [Compound 470a, 4-{3-[(4-chloro-2-fluorophenyl)methoxy]-4-fluorophenyl}-1-[(3-{[(2S)-oxetan-2-yl]methyl}-6-[5-(trifluoromethyl)-4H-1,2,4-triazol-3-yl]-3H-imidazo[4,5-c]pyridin-2-yl)methyl]piperidine]"
11,0.078,"N#Cc1ccc(COc2ccc(F)c(N3CCN(Cc4nc5cc(-c6nnc(C(F)(F)F)[nH]6)nnc5n4C[C@@H]4CCO4)CC3)n2)c(F)c1 [Compound 503a, 3-fluoro-4-{[(5-fluoro-6-{4-[(7-{[(2S)-oxetan-2-yl]methyl}-3-[5-(trifluoromethyl)-4H-1,2,4-triazol-3-yl]-7H-imidazo[4,5-c]pyridazin-6-yl)methyl]piperazin-1-yl}pyridin-2-yl)oxy]methyl}benzonitrile]"
12,0.026,"C[C@H]1CN(c2nc(OCc3ccc(Cl)cc3F)ccc2F)CCN1Cc1nc2cc(-c3nnc(C(F)(F)F)[nH]3)ncc2n1C[C@@H]1CCO1 [Compound 525a, (2S)-4-{6-[(4-chloro-2-fluorophenyl)methoxy]-3-fluoropyridin-2-yl}-2-methyl-1-[(3-{[(2S)-oxetan-2-yl]methyl}-6-[5-(trifluoromethyl)-4H-1,2,4-triazol-3-yl]-3H-imidazo[4,5-c]pyridin-2-yl)methyl]piperazine]"
